Data on 12 compounds can be found in EP1171141B1, “MEDICAMENT FOR INHIBITING THE NF-kB TRANSCRIPTION FACTOR” (Max Zeller Söhne AG, priority 1999, dated 2000).

What all share (format): cell-based
One assay has as its target T1, COX-1 (Homo sapiens, UniProt P23219).
T1 construct: Die Messung der COX1 Hemmung erfolgte in HEL-Zellen nach der Methode von Berg et al; endogenous in cells; host or cells: HEL cells
Put plainly: COX-1 inhibition in HEL cells (Tromboxan B2 by ELISA). As for the experimental part:
In einer Variante wurden Testsubstanz und LPS zeitgleich eingesetzt. Die Messung der COX1 Hemmung erfolgte in HEL-Zellen nach der Methode von Berg et al., J. Pharmacol. Toxicol. Methods 37, 179-186 (1997). Dabei wurden HEL Zellen mit unterschiedlichen Konzentrationen der Testsubstanzen während 30 min inkubiert, anschliessend Arachidonsäure zugesetzt (Endkonzentration 30 µM), während 15 Min. inkubiert und das gebildete Tromboxan B2 mittels ELISA gemessen.

In another assay the target is T2, COX-2 (Homo sapiens, UniProt P35354).
T2 construct: Dazu wurden Mono Mac 6 Zellen mit unterschiedlichen Konzentrationen der Testsubstanzen während 30 min inkubiert; endogenous in cells; host or cells: Mono Mac 6 cells, LPS-stimulated
T2 sequence (P35354 18-604): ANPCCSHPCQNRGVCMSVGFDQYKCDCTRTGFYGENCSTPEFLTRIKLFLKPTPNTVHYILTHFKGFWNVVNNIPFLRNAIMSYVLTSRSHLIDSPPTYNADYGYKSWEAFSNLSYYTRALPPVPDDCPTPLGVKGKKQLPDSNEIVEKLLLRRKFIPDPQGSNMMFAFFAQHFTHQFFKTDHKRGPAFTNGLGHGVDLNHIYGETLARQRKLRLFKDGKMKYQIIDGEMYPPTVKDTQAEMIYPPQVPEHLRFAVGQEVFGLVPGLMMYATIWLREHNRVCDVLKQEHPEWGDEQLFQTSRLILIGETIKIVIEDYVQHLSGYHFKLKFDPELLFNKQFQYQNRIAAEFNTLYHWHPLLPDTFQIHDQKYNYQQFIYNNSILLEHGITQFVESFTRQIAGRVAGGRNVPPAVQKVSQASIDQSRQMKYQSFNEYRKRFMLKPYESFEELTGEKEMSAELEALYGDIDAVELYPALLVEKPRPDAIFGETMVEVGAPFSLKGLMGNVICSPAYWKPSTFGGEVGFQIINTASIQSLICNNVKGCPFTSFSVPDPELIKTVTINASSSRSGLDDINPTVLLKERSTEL
Put plainly: cell-based. As for the experimental part:
Zur Bestimmung der COX-2-Hemmwirkung wurde allgemein nach der Methode von Berg et al., J. Pharmacol. Toxicol.
Dazu wurden Mono Mac 6 Zellen mit unterschiedlichen Konzentrationen der Testsubstanzen während 30 min inkubiert. Anschliessend wurde Lipopolysaccharid (LPS, 100 ng/ml) zupipettiert und nochmals sechs Stunden inkubiert. Anschliessend wurde Arachidonsäure zugegeben (Endkonzentration 30 µM), während 15 Min. inkubiert und das gebildete Keto-PGF1α mittels ELISA (Enzyme Linked Immuno Sorbent Assay) bestimmt.
In einer Variante wurden Testsubstanz und LPS zeitgleich eingesetzt. Die Messung der COX1 Hemmung erfolgte in HEL-Zellen nach der Methode von Berg et al., J. Pharmacol. Toxicol. […] Dabei wurden HEL Zellen mit unterschiedlichen Konzentrationen der Testsubstanzen während 30 min inkubiert, anschliessend Arachidonsäure zugesetzt (Endkonzentration 30 µM), während 15 Min. inkubiert und das gebildete Tromboxan B2 mittels ELISA gemessen. […]

In a further assay the test system is NF-κB. Put plainly: NF-κB inhibition of test compounds, NF-κB binding to DNA by EMSA (Jurkat T cells and cell extracts). To be noted: Jurkat T cells. The source says:
Bestimmt wurde dabei die in-vivo und die in-vitro NF-κB Bindung an DNA durch Messung der elektrophoretischen Mobilitätsverschiebung.
Die in vivo Bindung wurde mit Jurkat T-Zellen durchgeführt. Die Zellen wurden während einer Stunde mit verschiedenen Konzentrationen der verschiedenen Extrakte inkubiert und anschliessend mit TNF-α während einer Stunde stimuliert. Total-Protein-Extrakte der Zellen wurden gewonnen und in einem Assay auf elektrophoretische Mobilitätsverschiebung (electrophoretic mobility shift assay, EMSA) auf NF-κB-bindende Aktivität geprüft.
Die in vitro Bindung wurde ebenfalls mit Jurkat T-Zellen geprüft. Zellextrakle von stimulierten wie unstimulierten Zellen wurden gewonnen. Gleiche Proteinmengen (10-20 µg) wurden 2 Stunden mit Konzentrationsreihen der zu testenden Verbindungen inkubiert und schliesslich auf elektrophoretische Mobilitätsverschiebung (EMSA) analysiert.
Background: In EMSA bound probe runs differently from free probe, usually more slowly.

Structures are written as SMILES. pIC50: −log10 of the molar value.

T1 sequence (P23219 24-599): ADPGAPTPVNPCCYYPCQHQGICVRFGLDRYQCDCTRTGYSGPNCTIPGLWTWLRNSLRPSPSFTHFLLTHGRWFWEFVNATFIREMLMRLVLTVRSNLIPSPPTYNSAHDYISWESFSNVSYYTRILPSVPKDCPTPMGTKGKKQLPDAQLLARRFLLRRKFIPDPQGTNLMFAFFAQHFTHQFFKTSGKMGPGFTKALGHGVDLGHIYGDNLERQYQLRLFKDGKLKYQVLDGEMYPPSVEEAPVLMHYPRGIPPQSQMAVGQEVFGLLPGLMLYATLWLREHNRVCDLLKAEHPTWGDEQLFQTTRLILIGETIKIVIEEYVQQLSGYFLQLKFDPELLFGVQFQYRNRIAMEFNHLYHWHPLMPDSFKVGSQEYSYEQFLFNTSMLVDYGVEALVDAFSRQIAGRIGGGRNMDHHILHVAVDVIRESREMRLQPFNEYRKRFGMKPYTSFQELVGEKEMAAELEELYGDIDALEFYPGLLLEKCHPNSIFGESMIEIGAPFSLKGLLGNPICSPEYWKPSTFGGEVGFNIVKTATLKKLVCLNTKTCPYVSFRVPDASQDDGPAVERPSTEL

Consider `CN(CC(=O)O)c1ccc2c(=O)n3c(nc2c1)C(=O)c1cc(Cl)ccc1-3` [Verbindung 99], for which the negative logarithm of the IC50 (pIC50) (commonly −log10 of the IC50, conventionally taken in molar units) against COX-1 was 5.30; at COX-2, 6.30. Moreover, the “NF-κB: Grenzkonzentration, bei der eben noch ein Hemmeffekt im EMSA feststellbar ist” value (shortened to “NF-κB: Grenzkonzentration”) in the assay with NF-κB is 1 µM/Liter.
In the case of `CC1CN(c2cc3c(cc2F)C(=O)c2nc4ccccc4c(=O)n2-3)CCN1C(=O)OC(C)(C)C` (centres unmarked) [Verbindung 42], the pIC50 on COX-1 and on COX-2 was < 4.30 throughout. Further, in the assay on NF-κB, the “NF-κB: Grenzkonzentration” value is >100 µM/Liter.
On to `CCOC(=O)c1ccc2c(c1)C(=O)c1nc3ccccc3c(=O)n1-2` [Verbindung 37], for which the pIC50 against COX-1 and at COX-2 was < 4.30 each time. For the same compound, the “NF-κB: Grenzkonzentration” value with NF-κB is reported as >100 µM/Liter.
Turning to `O=C1c2ccccc2-n2c1nc1ccc(Cl)cc1c2=O` [Verbindung 5], the figures for the negative logarithm of the IC50 (pIC50) at COX-1 and against COX-2 were 5.00 and 5.70, respectively. Moreover, the “NF-κB: Grenzkonzentration” value with NF-κB came to 50 µM/Liter.
The corresponding values for `CCCCCCCCS(=O)(=O)c1ccc2c(c1)C(=O)c1nc3c(OC)cccc3c(=O)n1-2` [Verbindung 69] are < 4.30, < 4.30 and >100 µM/Liter.
For `Cc1cc(C)c2nc3n(c(=O)c2c1)-c1ccc(F)cc1C3=O` [Verbindung 24] the same measures were < 4.30, < 4.30 and >100 µM/Liter.
Take `O=C1c2cc(Cl)ccc2-n2c1nc1cc(N3CCOCC3)ccc1c2=O` [Verbindung 86]: the pIC50 at COX-1 was 5.30; against COX-2 it was 8.00. Further, the “präferentielle Hemmung der induzierbaren COX-2” value at COX-2 (COX-2 versus COX-1, statement on Table 2) is on record as “besonders deutliche präferentielle Hemmung der induzierbaren COX-2”. For the same compound, the “NF-κB: Grenzkonzentration” value with NF-κB is listed as 0,5 µM/Liter.
With `O=C1c2cc(Cl)ccc2-n2c1nc1ccccc1c2=O` [Verbindung 10], the figures for the pIC50 against COX-1 and against COX-2 were 6.00 and 6.30, respectively. In the assay with NF-κB, the “NF-κB: Grenzkonzentration” value is given as 5 µM/Liter.
For `CN1CCN(c2ccc3c(=O)n4c(nc3c2)C(=O)c2cc(F)ccc2-4)CC1` [Verbindung 32] the same measures were 6.00, 6.00 and 10 µM/Liter.
As for `O=C1c2ccccc2-n2c1nc1ccccc1c2=O` [Verbindung 1, Indolo[2,1-b]chinazolin-6,12-dion], on COX-1, the negative logarithm of the IC50 (pIC50) is 5.70.
Take `CN(CCO)c1ccc2c(=O)n3c(nc2c1)C(=O)c1cc(OC(F)(F)F)ccc1-3` [Verbindung 110]: the results for the pIC50 at COX-1 and against COX-2 were 5.70 and 6.30, respectively. In the assay with NF-κB, the “NF-κB: Grenzkonzentration” value worked out at 5 µM/Liter.
The corresponding values for `Nc1ccc2nc3n(c(=O)c2c1)-c1ccc(F)cc1C3=O` [Verbindung 20] are 5.30, 6.30 and 5 µM/Liter.
